# In EP1044000B1, “COMBINATION THERAPY FOR THE TREATMENT OF AIDS” (MERCK & CO., INC., priority 1997, dated 1999):
# System: wild-type HIV-1
# Experiment: Cell Spread Assay (described in US 5,646,148)
# Type: cell-based
# Details: against wild-type HIV-1
compound,measurement,value
"CC(C)(C)NC(=O)[C@@H]1CN(Cc2cccnc2)CCN1C[C@@H](O)C[C@@H](Cc1ccccc1)C(=O)N[C@H]1c2ccccc2C[C@H]1O [Indinavir, N-(2(R)-hydroxy-1(S)-indanyl)-2(R)-phenylmethyl-4-(S)-hydroxy-5-(1-(4-(3-pyridylmethyl)-2(S)-N'-(t-butylcarboxamido)-piperazinyl))-pentaneamide]",CIC95,50 nM
